Laboratory results reported in US9670212B2, “Inhibitors of PI3K-delta and methods of their use and manufacture” (Exelixis, Inc., priority 2010, dated 2017).
pIC50: −log10 of the molar value.

These molecules were tested against PI3K delta (Homo sapiens (Human), UniProt O00329) (assay: Luciferase-coupled chemiluminescence kinase assay (KinaseGlo, ATP consumption)).
Format: biochemical
In short: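 Kinase, compound and ATP (at or below KM) reacted 2 h at ambient temperature; remaining ATP detected by KinaseGlo luciferase chemiluminescence as percent ATP consumed. 10-point dose-response, curves fitted to give IC50.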

PI3K delta, sequence (O00329 whole entry): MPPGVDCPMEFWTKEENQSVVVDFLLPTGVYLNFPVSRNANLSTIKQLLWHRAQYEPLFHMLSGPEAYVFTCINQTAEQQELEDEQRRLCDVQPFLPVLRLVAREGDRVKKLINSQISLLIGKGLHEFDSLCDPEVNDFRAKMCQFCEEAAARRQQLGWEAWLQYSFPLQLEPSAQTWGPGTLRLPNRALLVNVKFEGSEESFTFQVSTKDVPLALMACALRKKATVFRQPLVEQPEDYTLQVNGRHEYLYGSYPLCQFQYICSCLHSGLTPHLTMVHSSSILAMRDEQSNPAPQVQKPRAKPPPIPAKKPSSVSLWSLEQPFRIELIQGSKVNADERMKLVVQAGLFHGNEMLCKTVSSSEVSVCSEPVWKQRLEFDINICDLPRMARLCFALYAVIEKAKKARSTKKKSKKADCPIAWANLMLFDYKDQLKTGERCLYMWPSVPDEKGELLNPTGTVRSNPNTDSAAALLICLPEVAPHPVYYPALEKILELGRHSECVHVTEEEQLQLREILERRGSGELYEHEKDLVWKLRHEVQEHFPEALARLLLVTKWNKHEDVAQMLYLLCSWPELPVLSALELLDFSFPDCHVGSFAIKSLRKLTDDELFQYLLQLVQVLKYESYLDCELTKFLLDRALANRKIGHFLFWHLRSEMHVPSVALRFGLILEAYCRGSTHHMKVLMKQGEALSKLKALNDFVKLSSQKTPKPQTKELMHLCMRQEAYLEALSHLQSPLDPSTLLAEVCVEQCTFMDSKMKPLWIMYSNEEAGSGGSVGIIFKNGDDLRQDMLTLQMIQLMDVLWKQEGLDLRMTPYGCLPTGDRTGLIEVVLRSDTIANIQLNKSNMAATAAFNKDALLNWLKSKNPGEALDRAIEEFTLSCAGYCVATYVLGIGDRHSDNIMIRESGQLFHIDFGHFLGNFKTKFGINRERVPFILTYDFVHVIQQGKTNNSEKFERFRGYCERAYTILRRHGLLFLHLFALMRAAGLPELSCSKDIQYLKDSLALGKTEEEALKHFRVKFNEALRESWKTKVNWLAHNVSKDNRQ
PI3K delta, sequence (P27986 whole entry partner): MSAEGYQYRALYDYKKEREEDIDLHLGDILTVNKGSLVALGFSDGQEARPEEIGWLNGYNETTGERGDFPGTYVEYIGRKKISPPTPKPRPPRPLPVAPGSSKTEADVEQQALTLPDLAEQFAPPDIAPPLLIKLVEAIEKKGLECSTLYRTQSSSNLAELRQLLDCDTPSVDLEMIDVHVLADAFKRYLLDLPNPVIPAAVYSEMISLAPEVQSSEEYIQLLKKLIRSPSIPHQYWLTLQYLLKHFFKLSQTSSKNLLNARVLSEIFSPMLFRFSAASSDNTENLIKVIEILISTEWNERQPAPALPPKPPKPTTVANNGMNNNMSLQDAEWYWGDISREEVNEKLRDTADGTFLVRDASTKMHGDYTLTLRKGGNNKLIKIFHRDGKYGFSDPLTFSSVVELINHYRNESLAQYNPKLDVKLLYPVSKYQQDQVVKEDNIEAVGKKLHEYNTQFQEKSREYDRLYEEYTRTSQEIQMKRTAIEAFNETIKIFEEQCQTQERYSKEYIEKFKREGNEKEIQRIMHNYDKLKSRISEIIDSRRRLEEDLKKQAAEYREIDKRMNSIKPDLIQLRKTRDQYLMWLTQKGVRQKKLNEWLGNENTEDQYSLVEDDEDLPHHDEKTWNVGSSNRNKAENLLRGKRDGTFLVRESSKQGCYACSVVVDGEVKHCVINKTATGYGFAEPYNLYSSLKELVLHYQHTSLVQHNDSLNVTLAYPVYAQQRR

pIC50 | SMILES
> 7.30 | Cc1cccc2nc(CNC(=O)c3nccnc3N)c(-c3ccccc3CN(C)C)cc12 [Compound 52, 3-amino-N-[(3-{2-[(dimethylamino)methyl]phenyl}-5-methylquinolin-2-yl)methyl]pyrazine-2-carboxamide]
6.30 to 6.60 | Cc1cccc2cc(CNC(=O)c3nccnc3N)c(N(C)CCN(C)C(=O)c3cccnc3)nc12 [Compound 80, 3-amino-N-{[8-methyl-2-(methyl{2-[methyl(pyridin-3-ylcarbonyl)amino]ethyl}amino)quinolin-3-yl]methyl}pyrazine-2-carboxamide]
5.82 to 6.30 | Cc1cccc2cc(CNC(=O)c3nccnc3N)c(NCCCN(C)C)nc12 [Compound 138, 3-amino-N-[(2-{[3-(dimethylamino)propyl]amino}-8-methylquinolin-3-yl)methyl]pyrazine-2-carboxamide]
> 7.30 | Cc1cccc2cc(CNC(=O)c3nccnc3N)c(N(C)CCN(C)C(=O)Cn3ccnc3C)nc12 [Compound 86, 3-amino-N-({8-methyl-2-[methyl(2-{methyl[(2-methyl-1H-imidazol-1-yl)acetyl]amino}ethyl)amino]quinolin-3-yl}methyl)pyrazine-2-carboxamide]
5.82 to 6.30 | Cc1cccc2cc(CNC(=O)c3nccnc3N)c(N3CCCN(CC(=O)N(C)C)CC3)nc12 [Compound 66, 3-amino-N-[(2-{4-[2-(dimethylamino)-2-oxoethyl]-1,4-diazepan-1-yl}-8-methylquinolin-3-yl)methyl]pyrazine-2-carboxamide]
5.82 to 6.30 | Cc1cccc2cc(CNC(=O)c3nccnc3N)c(N3CCC(NCC(=O)N(C)C)C3)nc12 (centres unmarked) [Compound 44, 3-amino-N-{[2-(3-{[2-(dimethylamino)-2-oxoethyl]amino}pyrrolidin-1-yl)-8-methylquinolin-3-yl]methyl}pyrazine-2-carboxamide]
6.60 to 7.30 | Cc1cccc2cc(CNC(=O)c3nccnc3N)c(N(C)CCN(C)CC(=O)N3CCOCC3)nc12 [Compound 77, 3-amino-N-{[8-methyl-2-(methyl{2-[methyl(2-morpholin-4-yl-2-oxoethyl)amino]ethyl}amino)quinolin-3-yl]methyl}pyrazine-2-carboxamide]
6.60 to 7.30 | Cc1cccc2cc(CNC(=O)c3nccnc3N)c(N(C)CCN(C)C(=O)c3ccncc3)nc12 [Compound 79, 3-amino-N-{[8-methyl-2-(methyl{2-[methyl(pyridin-4-ylcarbonyl)amino]ethyl}amino)quinolin-3-yl]methyl}pyrazine-2-carboxamide]

The next lines start with the molecule.

SMILES | pIC50
Cc1cccc2cc(Cn3cnc4c(N)ncnc43)c(-c3ccccc3Cl)nc12 [Compound 187, 9-{[2-(2-chlorophenyl)-8-methylquinolin-3-yl]methyl}-9H-purin-6-amine] | 6.60 to 7.30
Cc1ccccc1-n1c(CNC(=O)c2ccnc(N)c2)nc2cccc(C)c2c1=O [Compound 174, 2-amino-N-{[5-methyl-3-(2-methylphenyl)-4-oxo-3,4-dihydroquinazolin-2-yl]methyl}pyridine-4-carboxamide] | 5.82 to 6.30
Cc1cccc2cc(CNC(=O)c3nccnc3N)c(N3CCCN(C(=O)Cn4ccnn4)CC3)nc12 [Compound 60, 3-amino-N-({8-methyl-2-[4-(1H-1,2,3-triazol-1-ylacetyl)-1,4-diazepan-1-yl]quinolin-3-yl}methyl)pyrazine-2-carboxamide] | 6.30 to 6.60
CNCCN(C)c1nc2c(C)cccc2cc1COc1ccc(OC)cc1 [Compound 23, N,N′-dimethyl-N-[8-methyl-3-({[4-(methyloxy)phenyl]oxy}methyl)quinolin-2-yl]ethane-1,2-diamine] | 5.82 to 6.30
Cc1cccc2cc(Cn3cnc4c(N)ncnc43)c(N3CCOCC3)nc12 [Compound 177, 9-[(8-methyl-2-morpholin-4-ylquinolin-3-yl)methyl]-9H-purin-6-amine] | 6.60 to 7.30
Cc1cccc2cc(CSc3ncnc4[nH]cnc34)c(N(C)CC3CCN(C)CC3)nc12 [Compound 1, N,8-dimethyl-N-[(1-methylpiperidin-4-yl)methyl]-3-[(9H-purin-6-ylthio)methyl]quinolin-2-amine] | 6.60 to 7.30
